Experiments:
[1] = tested on: hepatic fibrosis; experiment: Hepatic fibrosis mouse model (CCl4); format: in vivo, C57BL/6N mice; details: FIG. 9; for serum alanine aminotransferase (ALT) levels / serum aspartate aminotransferase (AST) levels: intraperitoneal (IP) injection twice a week from third week of modelling; for pathology scores: intraperitoneal (IP) injection, liver Masson staining
Description: In this test example, the efficacy of the compounds of the present disclosure was tested on hepatic fibrosis in an animal model of hepatic fibrosis. Briefly, C57BL/6N mice, male, 7 to 8 weeks old, 24 to 28 g of body weight, were used. The mouse model of hepatic fibrosis was induced by intraperitoneal injection of CCl4 solution at a dosage of 1 mL/kg, with a dosing frequency of 2 times/week, and a modelling cycle of 6 weeks. Dosing via intraperitoneal injection was started starting from the third week of modelling twice a week. At the end of the test, serum was collected, and liver tissue was taken for Masson staining index assay.

[2] = tested on: Alzheimer's disease; experiment: Alzheimer's disease APP×PS1 transgenic mouse model; format: in vivo; details: intraperitoneal injection, 11 consecutive weeks, twice a week, FIG. 8
Description: In this test example, the efficacy of the compounds of the present disclosure was tested on Alzheimer's disease in an animal model of Alzheimer's disease. Briefly, a transgenic mouse model of APP×PS1 (purchased from Cyagen Biosciences) was selected, and the compound of the present disclosure was administered by intraperitoneal injection for 11 consecutive weeks, twice a week. Alterations in amyloid in the cerebral cortex of the mice were observed.

[3] = tested on: osteoarthritis; experiment: Osteoarthritis animal model; format: in vivo, mice; details: intra-articular injection, FIG. 7
Description: In this test example, the efficacy of the compounds of the present disclosure was tested on osteoarthritis in an osteoarthritis animal model.
The osteoarthritis animal model was constructed by the following steps. The mice were anesthetized with isoflurane, and fixed. The hair on the right hind limb of the mice was shaved and the skin was disinfected with alcohol, and the skin of the joints was cut. Under an optical microscope, the inside of the right knee joint was incised longitudinally with a blade, without cutting the patellar ligament. The patellar ligament was pulled to one side with constant hemostasis by compression with sterile cotton swabs such that the joint cavity was fully exposed. Saline was added dropwise in time to avoid the drying up of the joint cavity. The excess muscle tissue was gently separated with a blunt forceps to expose the meniscus ligament. The anterior cruciate ligament was found in the depth of the joint cavity and cut with a micro scissor. Then the wound was disinfected with penicillin solution, the muscle was sutured with sterile needle and thread, and the skin tissue was finally sutured. The efficacy of the drug was determined by intra-articular injection administration. At the endpoint of the test, continued pain threshold of the plantar was detected, and the bone joints were stained with safranin fast green.

[4] = tested on: aging skin; experiment: Aging skin, naturally aging mouse model; format: in vivo, C57bl/6J mice; details: skin application twice a week for 6 consecutive weeks, FIG. 10
Description: In this test example, aged female C57bl/6J mice (22 months old) were used. The drug was administered by skin application twice a week for 6 consecutive weeks.

[5] = tested on: wet-age-related macular degeneration; experiment: CNV animal model of wet-age-related macular degeneration; format: in vivo, mice; details: intravitreal (IVT), FIG. 5
Description: In this test example, the efficacy of the compounds of the present disclosure was tested on wet-age-related macular degeneration in a CNV animal model.
Male mice were administered 0.5% probacaine hydrochloride (Alcon) for local anesthesia, and 1% tropicamide to dilate the pupils of the mice. Laser cauterization was performed using a laser photocoagulator (Novus Varia, LUMENIS) with a slit lamp delivery system. And artificially torn adherent glass coverslips were used as contact lenses. Bleeding spots caused by lasers were not included in the statistics. In each experimental group, six mice were analyzed with four impacts per eye to overcome inherent variability.

[6] = tested on: senescent cells; experiment: Senescent cell killing, CellTiter-Glo cell viability; format: cell-based, human, mouse; details: activity of killing senescent cells; cell type not specified
From the text: In this test example, human non-small cell lung cancer cell line (A549 cells), human embryonic lung fibroblast cell line (IMR90 cells), human retinal pigment epithelial cells (RPE cells), mouse chondrocytes, and mouse skin fibroblasts were selected. The above cells were induced by etoposide ([…]) to obtain their senescent cells. The effect of the target compounds on the viability of normal and senescent cells above was examined, thus assessing the specific killing effect of the compounds on senescent cells above.
Briefly, senescent and normal cells above were selected and plated separately (96-well plates). […] 2A to 2E.

[7] = tested on: diabetic retinopathy; experiment: Mouse model of diabetic retinopathy (STZ), retinal Evans blue penetration assay; format: in vivo; details: intravitreal (IVT), 1 μL of 200 μM at 8 and 9 weeks after STZ, FIG. 4
Description: The efficacy of the compounds of the present disclosure was studied in a mouse model of diabetic retinopathy by multiple administrations of streptozotocin (STZ). C57BL/6J mice at 6 to 7 weeks were weighed and their baseline blood glucose was measured (Sino). STZ (Sigma-Alderich) was injected intraperitoneally into the mice at 55 mg/Kg for five consecutive days. Age-matched controls were injected with buffer only. Blood glucose was measured again one week after the last STZ injection. 1 μL of the test compound (200 μM, a suspension formulated in 0.015% polysorbate 80, 0.2% sodium phosphate, 0.75% sodium chloride, pH 7.2) was injected intravitreally into the STZ-treated diabetic C57BL/6J mice at 8 and 9 weeks after STZ administration. 10 weeks after STZ treatment, the retinal Evans blue penetration assay was performed.

[8] = tested on: renal fibrosis; experiment: Renal fibrosis animal model (ureter ligation); format: in vivo, C57BL/6J mice; details: FIG. 11; for serum creatinine (Cr) levels / urea nitrogen (BUN) levels: intraperitoneal (IP) injection from 2nd week of modelling; for pathology: intraperitoneal (IP) injection, kidney Masson staining
Description: In this test example, the efficacy of the compound of the present disclosure was tested on renal fibrosis in an animal model of renal fibrosis. Briefly, C57BL/6J mice, male, 7 to 8 weeks old, were used. The mice were anaesthetized, made to lie supine on a foam board, and disinfected with iodophor, and a longitudinal incision was made in the skin in the middle of the lower abdomen to locate the white line of the abdominal muscle, where the abdominal muscle, fascia and peritoneal layer were dissected. After exposing the surgical field, the kidneys were exposed by pushing the stomach and mesentery of the mice to the right side with a gauze soaked with saline. The model of renal fibrosis was constructed by locating the transparent ureter from the renal pelvis along the renal artery, separating the left ureter, ligating the upper ⅓ of the left ureter, suturing the incision layer by layer, and finally disinfecting with iodophor. Dosing via intraperitoneal injection started from the 2nd week of modelling. At the end of the experiment, the mouse serum was collected, and kidney tissues were taken for Masson staining index assay.

SMILES | serum alanine aminotransferase (ALT) levels [1] | serum aspartate aminotransferase (AST) levels [1] | pathology scores [1] | Aβ42 pathogenic protein indicators [2] | pathology scores of safranin fast green staining [3] | plantar mechanical pain threshold [3] | epidermal thickness scores of the skins [4] | fluorescence intensity indicators [5] | IC50 [6] [µM] | vascular permeability, choroidal vascular leakage [7] | vascular permeability, retinal vascular leakage [7] | serum creatinine (Cr) levels [8] | urea nitrogen (BUN) levels [8] | pathology [8]
CCN1CCN(C(=O)c2nc(N3CCc4cccc(C(=O)Nc5nc6ccccc6s5)c4C3)ccc2-c2cnn(CC34CC5CC(CC(C5)C3)C4)c2C)CC1 [RX001] | statistically significant improvements | statistically significant improvements | statistically significant improvements | statistically significant improvements | statistically significant improvements | statistically significant improvements | statistically significant improvements | statistically significant improvements | 0.2 to 1 | improved | improved | statistically significant improvements | statistically significant improvements | statistically significant improvements
Cc1c(-c2ccc(N3CCc4cccc(C(=O)Nc5nc6ccccc6s5)c4C3)nc2C(=O)N2CCC(CCOP(=O)(O)O)CC2)cnn1CC12CC3CC(CC(C3)C1)C2 [RX301] | statistically significant improvements | statistically significant improvements | statistically significant improvements | statistically significant improvements | statistically significant improvements | statistically significant improvements | statistically significant improvements | statistically significant improvements | < 0.2 | improved | improved | statistically significant improvements | statistically significant improvements | statistically significant improvements

Reference: patent publication US20260256772A1, “BENZOTHIAZOLE COMPOUND AND USE THEREOF” (NANJING REJU THERAPEUTICS, INC., priority 2022, published 2026)
